Reference: ChEMBL document CHEMBL4732213, “Discovery of novel ceramide analogs with favorable pharmacokinetic properties and combination with AKT inhibitor against colon cancer” (Eur J Med Chem, 2021)
The source made the active and inactive calls. No cut-off for these calls is given here.

How the values were obtained:
HT-29 [1] = assay: Antiproliferative activity against human HT-29 cells measured after 72 hrs by sulforhodamine B assay; type: functional, cell-based; details: HT-29, 72 h
[2] = AUC(0 to infinity) in BALB/c mouse at 50 mg/kg, ip; type: ADME, organism-based; design: time infinity, route intraperitoneal, dose 50 mg/kg; details: in vivo
[3] = AUC(0 to infinity) in BALB/c mouse at 10 mg/kg, iv; type: ADME, organism-based; design: route intravenous, time infinity, dose 10 mg/kg; details: in vivo
[4] = Half life in BALB/c mouse at 50 mg/kg, ip; type: ADME, organism-based; details: in vivo
[5] = AUC(0 to t) in BALB/c mouse at 10 mg/kg, iv; type: ADME, organism-based; design: dose 10 mg/kg; details: in vivo
[6] = Cmax in BALB/c mouse at 50 mg/kg, ip; type: ADME, organism-based; design: route intraperitoneal, dose 50 mg/kg; details: in vivo
[7] = AUC(0 to t) in BALB/c mouse at 50 mg/kg, ip; type: ADME, organism-based; design: dose 50 mg/kg; details: in vivo
[8] = Tmax in BALB/c mouse at 50 mg/kg, ip; type: ADME, organism-based; details: in vivo
[9] = Half life in BALB/c mouse at 10 mg/kg, iv; type: ADME, organism-based; details: in vivo
HT-29 [10] = assay: Induction of cell cycle arrest in human HT29 cells assessed as accumulation at G0/G1 phase at 10 uM after 24 hrs by PI staining based flow cytometry analysis; type: functional
HT-29 [11] = assay: Downregulation of c-Myc protein expression level in human HT29 cells at 10 uM incubated for 24 hrs by Western blotting analysis; type: functional, cell-based
HT-29 [12] = assay: Induction of apoptosis in human HT29 cells at 7.5 uM after 48 hrs by Annexin-V-FITC/PI staining based flow cytometric analysis; type: functional, cell-based
HT-29 [13] = assay: Down regulation of p-RB expression in human HT29 cells at 10 uM incubated for 24 hrs by Western blotting analysis; type: functional, cell-based
[14] = Toxicity in BALB/c nude mouse xenografted with human HT-29 cells assessed as effect on body weight at 50 mg/kg, po measured every 3 day by electronic caliper method; type: organism-based; details: in vivo, 72 h
HT-29 [15] = assay: Upregulation of p21 protein expression in human HT29 cells at 10 uM incubated for 24 hrs by Western blotting analysis; type: functional, cell-based
HT-29 [16] = assay: Induction of ROS generation in human HT29 cells at 10 uM after 16 hrs by flow cytometric analysis; type: functional, cell-based
HT-29 [17] = assay: Antitumor activity against human HT-29 cells xenografted in BALB/c nude mouse assessed as tumor growth inhibition at 50 mg/kg, po Q2D measured every 3 days by electronic caliper method; type: functional; details: HT-29, po, 72 h, time 3 day, read-out: TGI
HT-29 [18] = assay: Induction of apoptosis in human HT29 cells assessed as inhibition of AKT phosphorylation at 10 uM after 48 hrs by Western blotting analysis; type: functional, cell-based

| SMILES | IC50 (HT-29 [1]) [µM] | also measured |
| --- | --- | --- |
| CCCCc1ccc(COc2ccc(CCC(CO)(CO)NC(C)=O)c3ccccc23)cc1 | 27.1 | – |
| CCCCCCCOc1ccc(CCC(CO)(CO)NC(=O)OCc2ccccc2)c2ccccc12 | 60.5 | – |
| CCCCCCCCc1ccc(CCC(CO)(CO)NC(=O)CCCCCCC)c2ccccc12 | 22 | – |
| CCCCc1ccc(Oc2ccc(CCC(CO)(CO)NC(C)=O)c3ccccc23)cc1 | > 80 | – |
| CCCCCCCOc1ccc(CCC(CO)(CO)NC(=O)OCCCC)c2ccccc12 | 22.4 | – |
| CCCCCCCOc1ccc(CCC(CO)(CO)NC(=O)CCCCCCC)c2ccccc12 | 18.8 | – |
| CCCCCCCOc1ccc(CCC(CO)(CO)NC(=O)CCCCC)c2ccccc12 | 21.9 | – |
| CCCCCCCCc1ccc(C(O)CC(CO)(CO)NC(C)=O)c2ccccc12 (configuration not stated) | 77.9 | – |
| CCCCCCCCc1ccc(CCC(CO)(CO)NC(=O)c2ccccc2)c2ccccc12 | 23 | – |
| CCCCCCCCCCCCCC(=O)NC(CO)(CO)CCc1ccc(CCCCCCCC)c2ccccc12 | > 80 | – |
| CCCCCCCCc1ccc(CCC(CO)(CO)NC(=O)CCCCC)c2ccccc12 | 20.3 | – |
| CCCCCCCCCCCCC/C=C/[C@@H](O)[C@H](CO)NC(C)=O | 25.9 | AUC(0-inf) [2]: 4090 ng·h/mL; AUC(0-inf) [3]: 1630 ng·h/mL; half-life [4]: 3.99 h; AUC(0-t) [5]: 1620 ng·h/mL; Cmax [6]: 2740 ng/mL; AUC(0-t) [7]: 4060 ng·h/mL; Tmax [8]: 0.417 h; half-life [9]: 5.08 h |
| NC1(c2ccc(-c3nc4ccn5c(=O)[nH]nc5c4cc3-c3ccccc3)cc2)CCC1 [MK-2206] | – | Activity (HT-29 [10]): Active; Activity (HT-29 [11]): inactive; Activity (HT-29 [12]): inactive; Activity (HT-29 [13]): inactive; Activity [14]: Non-Toxic; Activity (HT-29 [15]): inactive; Activity (HT-29 [16]): Active; inhibition in vivo at 50 mg/kg (HT-29 [17]): 30.9%; Activity (HT-29 [18]): Active |
| CCCCCCCCCC(=O)NC(CO)(CO)CCc1ccc(CCCCCCCC)c2ccccc12 | > 80 | – |
| CCCCCCCOc1ccc(CCC(CO)(CO)NC(=O)OC(C)(C)C)c2ccccc12 | 21.4 | – |
| CCCCCCCCc1ccc(CCC(CO)(CO)NC(=O)CCC)c2ccccc12 | 26.4 | – |
| COc1ccc(CCC(CO)(CO)NC(C)=O)c2ccccc12 | > 80 | – |
| CCCCCCCCc1ccc(CCC(CO)(CO)NC(=O)C(C)CC)c2ccccc12 (configuration not stated) | 25.6 | – |
| CC(=O)NC(CO)(CO)CCc1ccc(O)c2ccccc12 | > 80 | – |
| C/C=C/C(=O)NC(CO)(CO)CCc1ccc(OCCCCCCC)c2ccccc12 | 36.4 | – |
| CCCCCCCCc1ccc(CCC(CO)(CO)NC(C)=O)c2ccccc12 | 36.5 | – |
